We go through 3 molecules from paper PMC3672848 (Journal of immunology (Baltimore, Md. : 1950), 2013).

Holding throughout (format): cell-based
For assay [1], the target named is T1, P2X7R (Homo sapiens, UniProt Q99572).
T1 sequence (Q99572 1-595): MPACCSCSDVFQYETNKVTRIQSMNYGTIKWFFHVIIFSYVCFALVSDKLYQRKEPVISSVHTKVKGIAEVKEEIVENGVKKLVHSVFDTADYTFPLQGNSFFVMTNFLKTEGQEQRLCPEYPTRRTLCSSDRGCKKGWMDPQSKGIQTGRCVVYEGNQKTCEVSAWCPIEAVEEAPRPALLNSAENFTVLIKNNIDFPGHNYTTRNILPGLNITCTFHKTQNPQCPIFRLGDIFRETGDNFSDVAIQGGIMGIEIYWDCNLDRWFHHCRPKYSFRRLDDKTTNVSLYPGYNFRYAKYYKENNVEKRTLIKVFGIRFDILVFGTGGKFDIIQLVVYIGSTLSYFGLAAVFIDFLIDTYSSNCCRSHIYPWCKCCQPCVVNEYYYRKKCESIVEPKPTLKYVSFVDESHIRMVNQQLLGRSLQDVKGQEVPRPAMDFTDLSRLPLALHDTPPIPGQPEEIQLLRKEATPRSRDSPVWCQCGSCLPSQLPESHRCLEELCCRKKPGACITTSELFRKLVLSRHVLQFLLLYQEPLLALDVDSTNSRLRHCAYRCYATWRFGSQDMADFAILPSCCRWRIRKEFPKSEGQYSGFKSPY
Briefly: whole-cell patch clamp:[…] blocks […] ATP-evoked current. (In general: Patch clamp records ionic current or voltage across a cell membrane.)

Assay [2] deals with T1, P2X7R. Briefly: whole-cell patch clamp, concentration-dependent inward currents.
In assay [3] the target is T1, P2X7R. Description: inhibition of ATP-induced.

In general, IC50 refers to the point on the concentration scale where inhibition reaches its midpoint. A lower IC50 goes with greater potency. In general, EC50 refers to the concentration that produces a half-maximal response.

In assay [1], `Clc1cccc(-c2nnnn2Cc2cccnc2)c1Cl` [A438079] returned an IC50 of 2250 nM.
Take `Nc1ncnc2c1ncn2[C@@H]1O[C@H](COP(=O)(O)OP(=O)(O)OP(=O)(O)O)[C@@H](O)[C@H]1O` [ATP]: the EC50 in assay [2] stood at 877000 nM.
The molecule `O=C1CSC(=O)N1C(CCc1ccncc1)COc1ccc(-c2cccc([N+](=O)[O-])c2)cc1` (stereo not drawn) [AZ11645373] displayed a concentration for half-maximal inhibition (IC50) in assay [3] of 1350 nM.
